Measurements taken from US6765128B1, “Method of using a pathogen-activatable map kinase to enhance disease resistance in plants” (priority 1998, dated 2004).

Assays:
[1] = system: SIPK; conditions: Zhang & Klessig, 1997; cited from earlier work
[2] = system: WIPK-encoded 44-kD kinase; test: Phosphatase treatment of protein extracts, then in-gel kinase activity assay; type: biochemical, tobacco; conditions: okadaic acid 1 μM; Na3VO4 1 mM
Procedure: (§1) In-gel kinase activity assay. The in-gel kinase activity assay was performed as described previously (zhang & Klessig, 1997). The relative kinase activity were quantitated using a PhosphorImager (Molecular Dynamics Inc., Sunnyvale, Calif.) and normalized to the level present at the zero time point for the 48-kD kinase, which was given a value of 1.
(§2) Treatment of protein extracts with phosphatases. Protein extracts were prepared in the absence of phosphatase inhibitors from TMV-infected leaves at 8 hr after shifting plants from 32° C. to 22° C. or 48 hr after infection at 22° C. Samples containing 20 μg of protein were treated with either the serine/threonine-specific phosphatase, PP-2A1 (0.25 units in 30 μL; Upstate Biotechnology, Lake Placid, N.Y.), or the tyrosine-specific protein phosphatase, YOP (2 units in 30 μL; NEB), for 20 min at 30° C. in the presence or absence of a phosphatase inhibitor. The PP-2A1 inhibitor, okadaic acid, and YOP inhibitor, Na3VO4 were used at a concentration of 1 μM and 1 mM, respectively. After phosphatase treatment, kinase activity was detected by the in-gel kinase activity assay.

[3] = system: 48-kD SIPK; test: as above; type: biochemical, tobacco; conditions: okadaic acid 1 μM; Na3VO4 1 mM
Procedure: as §1, §2

[4] = system: His-tagged WIPK protein; test: Immunoblot analysis of Ab-p44N against a panel of His-tagged MAP kinases; type: binding, tobacco; conditions: 0.2 μg/mL competitor peptide
Procedure: Antibody production and immunoblot analysis. The peptides p44N (MADANMGAGGGQFPDFPS; SEQ ID NO: 2) and p48N ([…]; SEQ ID NO: 3), which correspond respectively to the unique N-termini of the WIPK and the SIPK proteins, were synthesized and conjugated to keyhole limpet hemacyanin (KLH) carrier. Polyclonal antisera were raised in rabbits and purified by affinity column chromatography (Zymed Laboratory, South San Francisco, Calif.).
For immunoblot analysis, 20 μg of total protein per lane were separated on 10% SDS-polyacrylamide gels, and the proteins were transferred to nitrocellulose membranes (Schleicher & Schuell, Inc., Keene, N.H.) by semi-dry electroblotting. […]
The 44-kD kinase activated by TWV in encoded by WIPK. […] The specificity of the Ab-p44N was assessed by immunoblot analysis against a panel of different MAP kinases as described above for Ab-p48N.

| Effect of competitor peptide on binding of Ab-p44N to His-tagged WIPK protein [4] | Molecule | Activation of SIPK by treatment [1] | Effect of phosphatase inhibitor on inactivation of WIPK by PP-2A1 and YOP [2] | Effect of phosphatase inhibitor on inactivation of SIPK by PP-2A1 and YOP [3] |
| --- | --- | --- | --- | --- |
| – | O=C(O)c1ccccc1O [SA, salicylic acid] | activated | – | – |
| – | C=C1[C@@H](O)[C@@H]2O[C@]3(CC[C@H](/C=C/[C@@H](C)[C@@H]4CC(C)=C[C@@]5(O[C@H](C[C@@](C)(O)C(=O)O)CC[C@H]5O)O4)O3)CC[C@H]2O[C@@H]1[C@@H](O)C[C@H](C)[C@H]1O[C@@]2(CCCCO2)CC[C@H]1C [okadaic acid] | – | prevented | prevented |
| – | [Na+].[Na+].[Na+].[O]=[V]([O-])([O-])[O-] [vanadate, Na3VO4] | – | prevented | prevented |
| blocked binding | MADANMGAGGGQFPDFPS [p44N] | – | – | – |
| not | MDGSGQQTDTMMSDAGAEQPPTAP [p48N, peptide corresponding to the unique N-terminus of SIPK] | – | – | – |
